According to ChEMBL document CHEMBL5576040, “Dipeptide-catalysed Michael reaction under physiological conditions: Examination of potential bioorthogonality” (Bioorg Med Chem, 2024):

System: A2780
Experiment: Anticancer activity against human A2780 cells assessed as inhibition of cell growth measured after 48 hrs by MTT assay
Format: functional, cell-based
Conditions: A2780, 48 h

O=C1CCCC[C@H]1[C@H](c1ccccc1)C(F)[N+](=O)[O-] (some centres not stated)
IC50: 89 µM

O=C1CCCC[C@H]1[C@@H](C[N+](=O)[O-])c1ccccc1
IC50: > 100 µM
